Holding throughout (format): biochemical
In test [1] the target is T1, human JAK3 (a.a. 781-1124) (Homo sapiens, UniProt P52333).
T1 construct: JAK3 (a.a. 781-1124); His tag (N); made in house; host or cells: insect cells (baculovirus)
As to the kind of experiment: In vitro JAK kinase assay (HTRF, phosphorylation of a biotinylated peptide), JAK3. Summed up: (§1)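 Kinase activity was measured as phosphorylation of a biotinylated peptide, with ATP at 90 μM for JAK1, 30 μM for JAK2 and 3 μM for JAK3. Reactions ran 1 hr at room temperature, were stopped with EDTA plus SA-APC and Eu-Py20, and were read by HTRF after 40 minutes of antibody binding.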
(In general: Time-resolved FRET reads energy transfer from a long-lived donor to a nearby acceptor.)

The target of test [2] is T2, human JAK1 (a.a. 837-1142) (Homo sapiens, UniProt P23458).
T2 construct: human JAK1 (a.a. 837-1142); His tag (N); made in house; host or cells: insect cells (baculovirus)
The test is described as follows: In vitro JAK kinase assay (HTRF, phosphorylation of a biotinylated peptide), JAK1. The settings on record: read-out: JAK1 IC50. Summed up:
as §1

Test [3] concerns the target T3, human JAK2 (a.a. 828-1132) (Homo sapiens, UniProt O60674).
T3 construct: JAK2 (a.a. 828-1132); His tag (N); made in house; host or cells: insect cells (baculovirus)
The test is described as follows: In vitro JAK kinase assay (HTRF, phosphorylation of a biotinylated peptide), JAK2. An outline of the steps: as §1

Test [4] deals with T4, Recombinant Human Anaplastic Lymphoma Kinase (Homo sapiens, UniProt Q9UM73).
T4 construct: purchased Invitrogen, Carlsbad, Calif
The test is described as follows: ALK HTRF kinase assay. An outline of the steps:
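Readout was HTRF between a Eu-W1024 anti-phosphotyrosine antibody and streptavidin-APC bound to biotinylated peptide phosphorylated by recombinant human ALK. IC50 values came from a four-parameter logistic fit.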

The target in another test is TYK2 (Homo sapiens, UniProt P29597). As to the kind of experiment: TYK2 kinase inhibition (Table A1).
[5] abbreviates: method AA1 (3 μM ATP) or AA2 (1000 μM ATP), not stated per value.
Setting [6] is: method AA1 (90 μM ATP) or AA2 (1000 μM ATP), not stated per value.
Where [7] appears, read: method AA1 (30 μM ATP) or AA2 (1000 μM ATP), not stated per value.
Where [8] appears, read: compound at 500 nM or 1 mM, 90 μM ATP.
The mark [9] stands for this setting: compound at a concentration of 500 nM or 1 mM (not specified), cells shown as percentage.

The structures appear in SMILES notation. Counter-ions that a name gives are not always drawn. Like-named read-outs stand apart in the source and are kept apart here.

T1 sequence (P52333 781-1124): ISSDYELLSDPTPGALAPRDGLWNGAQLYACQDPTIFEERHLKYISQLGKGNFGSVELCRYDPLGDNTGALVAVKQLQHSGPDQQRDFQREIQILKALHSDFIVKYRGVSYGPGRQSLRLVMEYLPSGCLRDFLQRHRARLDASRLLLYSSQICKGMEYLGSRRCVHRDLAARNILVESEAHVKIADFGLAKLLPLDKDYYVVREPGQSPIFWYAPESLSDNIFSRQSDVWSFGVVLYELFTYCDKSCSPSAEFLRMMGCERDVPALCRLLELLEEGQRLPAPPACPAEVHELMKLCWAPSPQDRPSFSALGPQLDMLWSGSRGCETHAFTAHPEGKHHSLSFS
Sequence of TYK2 (P29597 whole entry): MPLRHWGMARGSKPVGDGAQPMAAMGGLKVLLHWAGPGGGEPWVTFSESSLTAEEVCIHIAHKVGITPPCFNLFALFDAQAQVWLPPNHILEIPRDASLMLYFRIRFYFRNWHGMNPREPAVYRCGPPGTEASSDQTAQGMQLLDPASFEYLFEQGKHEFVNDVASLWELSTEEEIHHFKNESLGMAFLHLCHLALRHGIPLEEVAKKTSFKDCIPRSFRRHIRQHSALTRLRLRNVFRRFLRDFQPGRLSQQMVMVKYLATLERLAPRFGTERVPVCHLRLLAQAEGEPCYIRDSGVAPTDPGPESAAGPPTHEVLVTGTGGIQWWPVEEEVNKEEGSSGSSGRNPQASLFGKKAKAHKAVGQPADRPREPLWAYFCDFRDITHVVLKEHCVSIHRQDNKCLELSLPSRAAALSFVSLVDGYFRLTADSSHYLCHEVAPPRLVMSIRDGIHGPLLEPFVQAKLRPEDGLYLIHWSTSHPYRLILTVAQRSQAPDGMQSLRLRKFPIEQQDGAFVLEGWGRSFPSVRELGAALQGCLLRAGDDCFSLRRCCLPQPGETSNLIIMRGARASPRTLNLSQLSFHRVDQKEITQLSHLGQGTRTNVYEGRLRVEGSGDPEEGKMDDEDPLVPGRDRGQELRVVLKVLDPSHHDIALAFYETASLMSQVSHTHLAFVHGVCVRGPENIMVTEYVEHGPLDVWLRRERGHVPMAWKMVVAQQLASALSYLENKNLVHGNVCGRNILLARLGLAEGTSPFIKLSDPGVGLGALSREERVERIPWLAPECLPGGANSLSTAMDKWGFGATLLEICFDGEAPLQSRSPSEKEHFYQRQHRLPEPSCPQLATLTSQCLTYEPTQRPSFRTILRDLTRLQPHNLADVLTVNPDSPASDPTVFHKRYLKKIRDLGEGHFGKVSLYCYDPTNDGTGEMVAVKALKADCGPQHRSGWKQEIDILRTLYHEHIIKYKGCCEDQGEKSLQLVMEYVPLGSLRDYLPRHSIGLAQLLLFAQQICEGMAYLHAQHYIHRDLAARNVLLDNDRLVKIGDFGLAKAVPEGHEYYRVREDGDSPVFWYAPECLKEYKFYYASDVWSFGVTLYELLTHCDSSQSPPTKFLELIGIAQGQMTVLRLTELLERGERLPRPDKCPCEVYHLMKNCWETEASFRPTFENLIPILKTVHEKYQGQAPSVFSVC
T3 sequence (O60674 828-1132): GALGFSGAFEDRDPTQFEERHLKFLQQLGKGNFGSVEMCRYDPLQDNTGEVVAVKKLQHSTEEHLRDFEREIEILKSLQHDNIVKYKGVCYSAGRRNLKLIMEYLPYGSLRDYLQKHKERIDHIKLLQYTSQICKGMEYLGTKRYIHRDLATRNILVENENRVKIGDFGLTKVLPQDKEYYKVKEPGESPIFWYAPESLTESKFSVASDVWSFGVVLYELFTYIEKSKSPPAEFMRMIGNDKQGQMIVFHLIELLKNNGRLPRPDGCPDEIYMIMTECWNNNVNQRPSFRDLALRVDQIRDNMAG
T2 sequence (P23458 849-1154): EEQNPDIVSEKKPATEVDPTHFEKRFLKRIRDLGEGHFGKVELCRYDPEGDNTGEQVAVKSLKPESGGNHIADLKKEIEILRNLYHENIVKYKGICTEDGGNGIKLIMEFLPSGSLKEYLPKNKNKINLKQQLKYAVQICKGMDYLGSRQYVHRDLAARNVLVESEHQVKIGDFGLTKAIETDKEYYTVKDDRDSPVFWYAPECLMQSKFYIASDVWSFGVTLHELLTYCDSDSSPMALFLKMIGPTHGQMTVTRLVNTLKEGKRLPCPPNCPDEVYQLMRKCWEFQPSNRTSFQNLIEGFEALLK
T4 sequence (Q9UM73 19-1620): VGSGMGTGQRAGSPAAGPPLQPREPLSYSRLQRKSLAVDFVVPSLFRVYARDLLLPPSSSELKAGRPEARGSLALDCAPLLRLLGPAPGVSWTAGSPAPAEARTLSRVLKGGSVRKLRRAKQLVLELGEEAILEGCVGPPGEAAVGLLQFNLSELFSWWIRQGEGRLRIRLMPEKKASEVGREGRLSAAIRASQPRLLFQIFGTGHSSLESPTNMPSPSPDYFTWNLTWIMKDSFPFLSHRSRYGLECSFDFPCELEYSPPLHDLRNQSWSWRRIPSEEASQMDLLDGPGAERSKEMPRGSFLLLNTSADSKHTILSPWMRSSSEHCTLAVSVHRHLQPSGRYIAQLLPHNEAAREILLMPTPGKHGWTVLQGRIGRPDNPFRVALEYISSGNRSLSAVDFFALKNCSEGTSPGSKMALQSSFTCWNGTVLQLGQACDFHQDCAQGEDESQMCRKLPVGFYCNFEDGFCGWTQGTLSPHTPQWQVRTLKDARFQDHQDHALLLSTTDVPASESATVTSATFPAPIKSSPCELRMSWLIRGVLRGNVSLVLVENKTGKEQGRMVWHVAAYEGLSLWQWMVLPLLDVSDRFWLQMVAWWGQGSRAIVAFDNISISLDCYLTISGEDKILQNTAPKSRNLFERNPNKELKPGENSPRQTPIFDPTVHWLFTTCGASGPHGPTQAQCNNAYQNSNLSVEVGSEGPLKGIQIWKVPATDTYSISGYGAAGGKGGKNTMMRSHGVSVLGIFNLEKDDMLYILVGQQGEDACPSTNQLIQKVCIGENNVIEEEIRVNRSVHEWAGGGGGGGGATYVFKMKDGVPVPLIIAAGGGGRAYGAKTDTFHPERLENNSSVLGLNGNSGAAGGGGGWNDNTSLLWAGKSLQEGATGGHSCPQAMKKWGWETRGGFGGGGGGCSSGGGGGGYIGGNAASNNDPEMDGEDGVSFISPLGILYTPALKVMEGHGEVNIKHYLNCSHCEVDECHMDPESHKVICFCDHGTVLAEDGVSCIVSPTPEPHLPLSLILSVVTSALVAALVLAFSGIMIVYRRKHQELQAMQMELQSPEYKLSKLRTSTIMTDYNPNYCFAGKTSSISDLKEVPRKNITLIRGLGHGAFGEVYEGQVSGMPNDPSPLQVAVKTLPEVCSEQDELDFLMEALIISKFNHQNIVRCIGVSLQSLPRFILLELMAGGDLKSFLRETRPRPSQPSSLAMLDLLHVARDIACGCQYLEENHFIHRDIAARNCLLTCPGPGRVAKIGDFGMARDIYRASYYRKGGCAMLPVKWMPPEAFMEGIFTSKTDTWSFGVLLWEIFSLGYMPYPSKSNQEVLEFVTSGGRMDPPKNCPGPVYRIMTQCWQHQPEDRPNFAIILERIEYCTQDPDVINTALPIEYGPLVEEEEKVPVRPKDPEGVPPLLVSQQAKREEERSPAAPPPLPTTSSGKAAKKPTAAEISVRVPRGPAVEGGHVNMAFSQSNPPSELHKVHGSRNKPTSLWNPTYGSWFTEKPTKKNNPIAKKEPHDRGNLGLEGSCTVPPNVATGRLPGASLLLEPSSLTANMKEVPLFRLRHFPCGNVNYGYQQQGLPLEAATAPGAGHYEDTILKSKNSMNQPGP

Take `Cc1cc(C(=O)N2CCC(CCC(=O)Nc3ccc4cc3CCc3cncc(c3)Nc3ncc(Cl)c(n3)N4)CC2)no1` [Example A125, N-[6-Chloro-2,4,8,18,22-pentaazatetracyclo[14.3.1.1(3,7).1(9,13)]docosa-1(20),3(22),4,6,9(21),10,12,16,18-nonaen-12-yl]-3-{1-[(5-methylisoxazol-3-yl)carbonyl]piperidin-4-yl}propanamide bis(trifluoroacetate)]: the IC50 (usually the concentration at which inhibition is half-maximal) in test [1] (setting [5]) came to 0.09 µM; in test [2] (setting [6]), 0.0017 µM; in test [3] (setting [7]), 0.0049 µM; on TYK2 it was 0.0053 µM. For the same compound, the “ALK % of inhibition at a concentration of 500 nM or 1 mM” value (“ALK % of inhibition” below) in test [4] (setting [8]) was found to be 25%.
With `Cc1cc(C(=O)N2CCC(C(=O)Nc3ccc4cc3CCc3cccc(c3)Nc3ncc(Cl)c(n3)N4)CC2)no1` [Example A120, N-[6-Chloro-2,4,8,22-tetraazatetracyclo[14.3.1.1(3,7).1(9,13)]docosa-1(20),3(22),4,6,9(21),10,12,16,18-nonaen-12-yl]-1-[(5-methylisoxazol-3-yl)carbonyl]piperidine-4-carboxamide trifluoroacetate], the IC50 was found to be 0.112 µM in test [1] (setting [5]), 0.021 µM in test [2] (setting [6]), 0.016 µM in test [3] (setting [7]) and 0.037 µM on TYK2. For the same compound, the “ALK % of inhibition” value in test [4] (setting [8]) turned out to be 42%.
On to `O=C(Nc1ccc2cc1CCc1cncc(c1)Nc1ncc(Cl)c(n1)N2)N[C@H]1CCN(C(=O)c2ccn[nH]2)C1` [Example B268, N-[6-Chloro-2,4,8,18,22-pentaazatetracyclo[14.3.1.1(3,7).1(9,13)]docosa-1(20),3(22),4,6,9(21),10,12,16,18-nonaen-12-yl]-N′-[(3S)-1-(1H-pyrazol-5-ylcarbonyl)pyrrolidin-3-yl]urea bis(trifluoroacetate)], for which the IC50 in test [1] (Table B1) was above 10 µM; in test [2] (Table B1) it was 0.0098 µM; in test [3] (Table B1), 0.273 µM; against TYK2 (Table B1) it was 0.541 µM. Also, the “ALK % of inhibition” value in test [4] (setting [9]) is given as 16%.
Taken in the same sequence, the figures for `Cc1oncc1C(=O)N1CCC(NC(=O)Nc2ccc3cc2CCc2cccc(c2)Nc2ncc(Cl)c(n2)N3)CC1` [Example B264, N-[6-chloro-2,4,8,22-tetraazatetracyclo[14.3.1.1(3,7).1(9,13)]docosa-1(20),3(22),4,6,9(21),10,12,16,18-nonaen-12-yl]-N′-{1-[(5-methylisoxazol-4-yl)carbonyl]piperidin-4-yl}urea trifluoroacetate] were 0.216 µM, 0.014 µM, 0.025 µM, 0.054 µM and 27%.
Turning to `O=C(CC1CCN(c2nncs2)CC1)Nc1ccc2cc1CCc1cncc(c1)Nc1ncc(Cl)c(n1)N2` [Example A174, tris(trifluoroacetate)], the concentration for half-maximal inhibition (IC50) in test [1] (setting [5]) is above 1 µM; in test [2] (setting [6]) it was 0.0041 µM; in test [3] (setting [7]) it was 0.124 µM; on TYK2, 0.072 µM. Besides, the “ALK % of inhibition” value in test [4] (setting [8]) is reported as 33%.
Turning to `O=C(Nc1cccc(C(F)(F)F)c1)Nc1ccc2cc1CCc1cccc(c1)Nc1ncc(Cl)c(n1)N2` [Example B112, N-[6-Chloro-2,4,8,22-tetraazatetracyclo[14.3.1.1(3,7).1(9,13)]docosa-1(20), 3(22),4,6,9(21),10,12,16,18-nonaen-12-yl]-N′-[3-(trifluoromethyl)phenyl]urea trifluoroacetate], the half-maximal inhibitory concentration (IC50) worked out at 0.165 µM in test [1] (Table B1), 0.011 µM in test [2] (Table B1), 0.034 µM in test [3] (Table B1) and 0.033 µM on TYK2 (Table B1). In test [4] (setting [9]), the “ALK % of inhibition” value worked out at 3.3%.
As for `Clc1cnc2nc1Nc1cccc(c1)CSCc1cccc(c1)N2` [Example D20, 6-Chloro-15-thia-2,4,8,23-tetraazatetracyclo[15.3.1.1(3,7).1(9,13)]tricosa-1(21),3(23),4,6,9(22),10,12,17,19-nonaene trifluoroacetate], the IC50 in test [1] (Table D1) was found to be 0.088 µM; in test [2] (Table D1), 0.041 µM; in test [3] (Table D1), 0.032 µM; in test [4] (Table D1, 90 μM ATP), 0.598 µM; on TYK2 (Table D1), 0.102 µM.
Take `CN(C)C(=O)Nc1ccc2cc1CCc1cccc(c1)Nc1ncc(Cl)c(n1)N2` [Example B239, N′-[6-Chloro-2,4,8,22-tetraazatetracyclo[14.3.1.1(3,7).1(9,13)]docosa-1(20),3(22),4,6,9(21),10,12,16,18-nonaen-12-yl]-N,N-dimethylurea trifluoroacetate]: the half-maximal inhibitory concentration (IC50) in test [1] (Table B1) worked out at 0.035 µM; in test [2] (Table B1) it was 0.0064 µM; in test [3] (Table B1), 0.0089 µM; against TYK2 (Table B1), 0.024 µM. Moreover, in test [4] (setting [9]), the “ALK % of inhibition” value was determined as 21%.
On to `CC(C)C(=O)N1CCC(CC(=O)Nc2ccc3cc2CCc2cncc(c2)Nc2ncc(Cl)c(n2)N3)CC1` [Example A103, N-[6-Chloro-2,4,8,18,22-pentaazatetracyclo[14.3.1.1(3,7).1(9,13)]docosa-1(20),3(22),4,6,9(21),10,12,16,18-nonaen-12-yl]-2-(1-isobutyrylpiperidin-4-yl)acetamide bis(trifluoroacetate)], for which the IC50 in test [1] (setting [5]) stood at 0.156 µM; in test [2] (setting [6]) it was 0.01 µM; in test [3] (setting [7]) it was 0.021 µM; at TYK2, 0.015 µM. For the same compound, the “ALK % of inhibition” value in test [4] (setting [8]) came out at 24%.
`O=C(Nc1ccc2cc1CCc1cccc(c1)Nc1ncc(Cl)c(n1)N2)c1ccc2c(c1)OCO2` [Example B71, N-[6-Chloro-2,4,8,22-tetraazatetracyclo[14.3.1.1(3,7).1(9,13)]docosa-1(20), 3(22),4,6,9(21),10,12,16,18-nonaen-12-yl]-1,3-benzodioxole-5-carboxamide trifluoroacetate]: the half-inhibitory concentration (IC50) in test [1] (Table B1) is 0.024 µM; in test [2] (Table B1) it was 0.0019 µM; in test [3] (Table B1) it was 0.0049 µM; against TYK2 (Table B1) it was 0.0096 µM. In test [4] (setting [9]), the “ALK % of inhibition” value stood at 43%.
As for `NC1CCN(c2ccnc(Nc3ccc4cc3CCc3cccc(c3)Nc3ncc(Cl)c(n3)N4)n2)CC1` [Example B281, N-[4-(4-Aminopiperidin-1-yl)pyrimidin-2-yl]-6-chloro-2,4,8,22-tetraazatetracyclo[14.3.1.1(3,7).1(9,13)]docosa-1(20),3(22),4,6,9(21),10,12,16,18-nonaen-12-amine tris(trifluoroacetate)], the 50% inhibitory concentration (IC50) was found to be 1.4 µM in test [1] (Table B1), 0.015 µM in test [2] (Table B1), 0.15 µM in test [3] (Table B1) and 2.3 µM at TYK2 (Table B1). Further, the “ALK % of inhibition” value in test [4] (setting [9]) amounted to 24%.
For the compound `O=C(CC1CCN(c2nncs2)CC1)Nc1ccc2cc1CCc1cccc(c1)Nc1ncc(Cl)c(n1)N2` [Example A183, N-[6-Chloro-2,4,8,22-tetraazatetracyclo[14.3.1.1(3,7).1(9,13)]docosa-1(20),3(22),4,6,9(21),10,12,16,18-nonaen-12-yl]-2-[1-(1,3,4-thiadiazol-2-yl)piperidin-4-yl]acetamide bis(trifluoroacetate)], the concentration for half-maximal inhibition (IC50) is above 0.2 µM in test [1] (setting [5]), 0.0036 µM in test [2] (setting [6]), 0.022 µM in test [3] (setting [7]) and 0.03 µM on TYK2. Further, the “ALK % of inhibition” value in test [4] (setting [8]) came to 40%.

(Values after patent US8871753B2, “Macrocyclic compounds and their use as kinase inhibitors” (Incyte Corporation, priority 2008, dated 2014).)
